# From paper PMC7688903 (Frontiers in Microbiology, 2020)
# Where a SMILES comes first, the peptide text is derived from it. [ ]: non-standard residue; d: D form. 2Thi = N[C@@H](Cc1cccs1)C(=O)O; Aib = CC(C)(N)C(=O)O
# Key:
# P. aeruginosa ATCC 27853 = type: cell-based, Pseudomonas aeruginosa; settings: ATCC 27853, 20 h
# Summary of the method: (§1)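 Inocula were set to 0.5 McFarland and diluted to ~5 × 10^5 CFU/mL (bacteria, MH broth) or 0.5 × 10^3 to 2.5 × 10^3 CFU/mL (yeast, RPMI 1640). Peptide twofold dilutions were added, plates incubated 20 h at 37°C or 48 h at 35°C, then scored by eye.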
# [1] = tested on: carbapenem-resistant P. aeruginosa (CRPA) SIPI-012; type: cell-based, Pseudomonas aeruginosa; settings: carbapenem-resistant (CRPA) SIPI-012, 20 h
# Summary of the method: as §1
# A. baumannii ATCC 19606 = type: cell-based, Acinetobacter baumannii; settings: ATCC 19606, 20 h
# Summary of the method: as §1
# [2] = tested on: carbapenem-resistant A. baumannii (CRAB) SIPI-025; type: cell-based, Acinetobacter baumannii; settings: carbapenem-resistant (CRAB) SIPI-025, 20 h
# Summary of the method: as §1
# S. aureus ATCC 25923 = assay: microbe, parasite or virus in culture; type: cell-based, Staphylococcus aureus; settings: ATCC 25923, 20 h
# Summary of the method: as §1
# C. albicans ATCC 10231 = assay: microbe, parasite or virus in culture; type: cell-based, Candida albicans; settings: ATCC 10231, 48 h
# Summary of the method: as §1
# [3] = tested on: proteases secreted by S. aureus ATCC 25923; assay: in vitro
# Summary of the method: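 Cell-free culture supernatants (overnight, 37°C; MH broth for bacteria, 2% tryptone/2% dextrose for yeast) were centrifuged, adjusted to pH 8.0 and 0.22 μm filtered. Peptides at 0.5 mg/mL were incubated in supernatant 24 h at 37°C; remaining intact peptide measured by RP-HPLC, with peptide-free supernatant as negative control.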
# human erythrocytes = assay: Hemolytic activity assay; type: cell-based; settings: human RBC in PB, 37°C, 1 h, OD420, total lysis control 0.1% SDS, three technical replicates
# Summary of the method: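 Washed RBCs from a healthy volunteer were incubated with peptides at 32–128 μM for 1 h at 37°C in PB. Hemoglobin release into the supernatant was read as OD420 against total lysis with 0.1% SDS, in three technical replicates.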
# RAW 264.7 cells = assay: Cell viability assay (MTT); type: cell-based, mouse; settings: 1–128 μM peptide in DMEM with 4% FBS, 42 h, 595 nm, triplicate
# Summary of the method: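 RAW 264.7 cells (1 × 10^4/well, DMEM + 10% FBS) grown overnight to 80% confluency, then exposed to peptides at 1–128 μM in DMEM with 4% FBS for 42 h at 37 °C. MTT read at 595 nm; viability relative to medium-only controls, triplicate, IC50 as 50% loss of viability.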
# human plasma proteases = assay: in vitro
Compound,MIC (P. aeruginosa ATCC 27853),MIC [1],MIC (A. baumannii ATCC 19606),MIC [2],MIC (S. aureus ATCC 25923),MIC (C. albicans ATCC 10231),"remaining at 24 h, 0.5 mg/mL ([3]; Staphylococcus aureus, S. aureus ATCC 25923 culture supernatant, pH 8)",Hemolysis rate (%) (human erythrocytes; 64 μM),Hemolysis rate (%) (human erythrocytes; 128 μM),IC50 (RAW 264.7 cells),"remaining at 8 h, 0.1 mg/mL (human plasma proteases)","remaining at 24 h, 0.1 mg/mL (human plasma proteases)","Percent of remained peptide amount after incubation (%) ([3]; S. aureus ATCC 25923 culture supernatant (MH broth), pH 8.0, 0.22 μm filtered, peptide 0.5 mg/mL, 37°C, 24 h, RP-HPLC)","remaining at 12 h, 0.1 mg/mL (human plasma proteases)"
CC(C)C[C@H](NC(=O)[C@H](CC(C)C)NC(=O)[C@@H](CCCCN)NC(=O)[C@@H](CCCCN)NC(=O)[C@H](Cc1ccccc1)NC(=O)[C@H](CC(C)C)NC(=O)[C@@H](CCCNC(=N)N)NC(=O)[C@H](N)CCCCN)C(=O)N[C@H](CCCCN)C(=O)N[C@@H](Cc1ccc(O)cc1)C(=O)N[C@@H](CC(C)C)C(=O)N[C@H](CCCNC(=N)N)C(=O)N[C@H](CCCCN)C(=O)N[C@@H](Cc1ccccc1)C(N)=O [DP06] (H-[dK][dR]LF[dK][dK]LL[dK]YL[dR][dK]F-NH2),1 µg/mL,8 µg/mL,1 µg/mL,2 µg/mL,0.5 µg/mL,2 µg/mL,86.4 ± 4.81%,37.14 ± 2.73%,59.99 ± 2.41%,48.8 ± 6.97 µM,> 90%,> 60%,,
CC(C)C[C@H](NC(=O)[C@H](Cc1ccc(O)cc1)NC(=O)[C@H](CCCCN)NC(=O)[C@H](CC(C)C)NC(=O)[C@H](CC(C)C)NC(=O)[C@H](CCCCN)NC(=O)[C@H](CCCCN)NC(=O)[C@H](Cc1ccccc1)NC(=O)[C@H](CC(C)C)NC(=O)[C@H](CCCNC(=N)N)NC(=O)C(C)(C)N)C(=O)N[C@@H](CCCNC(=N)N)C(=O)N[C@@H](CCCCN)C(=O)N[C@@H](Cc1cccs1)C(N)=O [UP09] (H-[Aib]RLFKKLLKYLRK[2Thi]-NH2; N-terminus assumed),2 µg/mL,4 µg/mL,2 µg/mL,2 µg/mL,1 µg/mL,4 µg/mL,,55.99 ± 3.75 %,95.99 ± 2.10 %,26.2 ± 1.8 µM,,> 30%,36.92 ± 3.97 %,> 50%
